Legend:
[1] = system: CD24^−/CD44^+‐breast CSCs xenotransplanted tumors; assay: Preclinical orthotopic xenograft murine tumor model (tumor size, weight, H&E histology); assay type: in vivo, C57BL/6 mice
Description: (§1) Animal studies have been carried out with the prior approval of the Institutional Animal Ethics Committee (IICT/IAEC/025/2023). C57BL/6 female mice of age 6–8 weeks (N = 35) were initially immunosuppressed with cyclophosphamide (50 mg/kg of body weight, i.p) on alternate days for 2 weeks. For generating a preclinical orthotopic xenograft tumor model, 2 × 10^6 GFP expressing sorted stable CD24^+‐breast cancer cells and CD24^−/CD44^+‐breast CSCs were orthotopically xeno‐transplanted subcutaneously at the fourth mammary fat pad of immune‐suppressed mice (n = 5/group). Subsequently, intratumoral administration of Doxorubicin at a low dose (2.5 mg/kg of body weight), high dose (10 mg/kg of body weight), and/or combinatorial treatment of the potent EGFR inhibitor, compound 1e (50 mg/kg of body weight) or the commercial EGFR inhibitor, PD153035 (50 mg/kg of body weight) with a low dose of doxorubicin was performed to the palpable tumors of breast CSCs at day‐3 post‐transplantation.
Euthanization of mice was performed on day 14 post‐transplantation and tumor tissues were collected for histological and immunohistochemical analysis. Histological differences in tumor tissues were evaluated using hematoxylin and eosin staining (H&E).[28], [30]

[2] = system: CD44, p‐EGFR, p‐JNK, p‐p38 in tumor tissue; assay: Immunohistochemical analysis of tumor tissue (colocalization with GFP, Pearson's correlation coefficient); assay type: in vivo, C57BL/6 mice
Description: as §1
Immunohistochemical analysis was performed by immunostaining the tissue serial sections with primary antibodies against GFP, CD44, p‐EGFR, p‐JNK, and p‐p38 (CST, USA) followed by alexafluor‐488/555 conjugated secondary antibodies (R&D systems, USA) and mounting medium containing DAPI.[28], [29] Images were captured using a confocal microscope (Olympus FV10i, Tokyo, Japan). Pearson's correlation coefficient was utilized to determine the co‐localization of GFP/CD44, GFP/p‐EGFR, GFP/p‐JNK, and GFP/p‐p38 (Table. ST3).

[3] = system: MDA‐MB‐468; assay: MTT cytotoxicity assay in MDA-MB-468; assay type: cell-based, human
Description: (§2) TNBC cell lines (ER^−, PR^−, HER2^−)—MDA‐MB‐231 (ATCC HTB‐26) and MDA‐MB‐468 (ATCC HTB‐132) were procured from ATCC and cultured in Roswell Park Memorial Institute Media (RPMI‐1640) and Dulbecco's Modified Eagle's Medium (DMEM), respectively, supplemented with 10% FBS and 1% Penicillin–Streptomycin solution. Cells were maintained at 5% CO2 at 37°C in a humid atmosphere.[6], [26] The control cell line, Human Embryonic Kidney—HEK‐293 (ATCC CRL‐3216) was also obtained from ATCC and cultured in DMEM.[5], [25]
(§3) To evaluate the cytotoxicity profile of the potential EGFR inhibitors (compounds) against TNBC cell lines—MDA‐MB‐231, MDA‐MB‐468, and control cell line HEK293, cells were seeded at a cell density of 5 × 10^3 cells/well in complete medium onto 96‐well plates. Here, the non‐tumoral human embryonic kidney (HEK293) epithelial cells have been utilized as a control cell line to compare the IC50 values of the compounds between cancerous and non‐cancerous cell lines with a big therapeutic window. The use of HEK293 cells as compared to other non‐cancerous cell lines are easy to maintain in culture and the results obtained from HEK293 are highly reproducible and consistent.[27] Briefly, the cells were incubated at 37°C for 12 h to attain morphology. After 12 h, cells were serum starved by replacing the complete media with media containing 2% FBS to synchronize the cells. Post‐12 h of synchronization, cells were treated with an increasing concentration (0.1, 1, 10, 100 μM) of all the compounds (1a, 1b, 1c, 1d, 1e, 1f, 1g, 1h, 1i, 1j, 1k). Separately, TNBC cells were treated with increasing concentration (0.01, 0.1, 1 μM) of Doxorubicin (Sigma‐Aldrich, St Louis, MO, USA) in presence of the selected compounds (1c, 1e, 1g, 1h, 1j, and 1k) at 5 μM concentration or combination of selected compounds (1c, 1e, 1g, 1h, 1j, and 1k) at increasing concentration (1, 2.5, 5, 10 μM) in presence of Doxorubicin (0.01 μM) for 48 h. In addition, the CD24^+‐breast cancer cells and CD24^−/CD44^+‐breast CSC populations, being sorted by Magnetic Activated Cell Sorting (MACS) from MDA‐MB‐231 cells as described previously,[6] were also treated with increasing concentrations of Doxorubicin (0.01–1 μM), in the presence or absence of 1e (10–30 μM), or PD153035 (10 μM) (Sigma‐Aldrich, St Louis, MO, USA). MTT assay was performed to evaluate the cytotoxicity of these compounds against the TNBC cell lines, and the sorted populations as described previously.[6] All the experiments were performed thrice and the IC50 values of the compounds and Doxorubicin were calculated using GraphPad Prism software version 9 (San Diego, CA, USA). Similarly, the percent inhibition of the sorted cell populations by chemotherapeutic drug, doxorubicin in the absence/presence of potent compound 1e or standard EGFR inhibitor, PD153035 was evaluated utilizing GraphPad Prism Version 9 (San Diego, CA, USA).

[4] = system: MDA‐MB‐231; assay: MTT cytotoxicity assay in MDA-MB-231; assay type: cell-based, human; details: compound alone, MTT, 48 h; read-out: IC50 (μM) in MDA‐MB‐231 (mean ± SD)
Description: as §2, §3

c1cncc(C(c2c[nH]c3ccccc23)c2c[nH]c3ccccc23)c1 [1e]
tumorigenicity (H&E histology) ([1]; 50 mg/kg + low dose doxorubicin 2.5 mg/kg, CSC xenograft): significant decrease
histopathological finding in tumor tissue ([1]; 50 mg/kg + low dose doxorubicin 2.5 mg/kg, CSC xenograft, day 14): no tumor mass
tumor size ([1]; intratumoral, 50 mg/kg + doxorubicin low dose 2.5 mg/kg vs low dose doxorubicin alone, CD24^−/CD44^+ CSC xenograft): significantly decreased
colocalization of GFP/p‐EGFR ([2]; with doxorubicin low dose, CSC xenograft tumor tissue): decreased significantly
activation of apoptotic signaling mediators (GFP/p‐JNK, GFP/p‐p38 colocalization) ([2]; with low dose doxorubicin, comparable with high dose doxorubicin alone): increased activation
colocalization of GFP and CD44 (Pearson's correlation coefficient) ([2]; with low dose of doxorubicin, CSC xenograft tumor tissue): comparable to the high dose of doxorubicin treated group
decrease in the IC50 of Doxorubicin in the presence of the compound ([3]; MDA-MB-468, versus Doxorubicin alone): 10 fold
IC50 ([3]; compound alone, MTT, 48 h, read-out: IC50 (μM) in MDA‐MB‐468 (mean ± SD)): 36 ± 5.91 µM
IC50 [4]: 18.6 ± 1.84 µM

Reference: article PMC10961089, “Epidermal growth factor receptor inhibition potentiates chemotherapeutics‐mediated sensitization of metastatic breast cancer stem cells” (Cancer Reports, 2024)
